Measurements reported in patent US20260226064A1, “POLYCYCLIC COMPOUND FOR TREATING NEUROLOGICAL DISEASES AND TUMORS” (Shanghai Institute of Organic Chemistry, Chinese Academy of …, priority 2023, published 2026).
Where two headings read alike, the source gives them in different places.

What was measured:
[1] = test system: acetylated microtubule in HEK293T cells; assay: Microtubule-Stabilizing Activity Assay (acetylated microtubule immunoblot, HEK293T, colchicine challenge); format: cell-based; conditions: 1 h pre-incubation, then colchicine 1 μM 3 h, relative to CNDR-51657 at 500 nM = 1.00; for Microtubule-Stabilizing Activity 50 nM: compound 50 nM; for Microtubule-Stabilizing Activity 500 nM: compound 500 nM
Procedure: Compound solvent: 100% dimethyl sulfoxide (DMSO). Cell line: HEK293T (ATCC, CRL3216). Culture conditions: Cells were cultured in Dulbecco's Modified Eagle's Medium (DMEM) containing 10% fetal bovine serum and 1% penicillin/streptomycin. Cells were cultured at 37° C. in a Thermo-Fisher incubator with a humidified atmosphere of 5% carbon dioxide.
One day prior to the experiment, 100,000 cells were seeded at a density of 200,000 cells/ml in a 24-well plate.
On the day of the experiment, 20 μl of PBS phosphate buffer containing the test compound at experimental concentrations or an equivalent volume of DMSO was added to each well. After incubating at 37° C. for 1 hour, colchicine was added to each well at a final concentration of 1 μM, followed by an additional 3-hour incubation at 37° C. The plate was then placed on ice. The medium in each well was removed, and the cells were washed with ice-cold PBS. After aspirating the PBS, 0.1 mL of ice-cold RIPA lysis buffer (containing 0.5% sodium deoxycholate, 0.1% SDS, 1% NP-40, 5 mM EDTA, pH 8.0) was quickly added. Prior to use, a commercial protease inhibitor cocktail (1:500) and 1 μM deacetylase inhibitor Trichostatin A (Sangon Biotech Co., Ltd.) were added to the cell lysis buffer. The cell lysate were transferred to a 1.5 ml centrifuge tube, sonicated, and centrifuged at 13,000 rpm for 10 minutes. The supernatant was collected, and protein concentration was determined using the BCA assay.
Based on existing literature (Black, 1989; Kurt, 2011), acetylated microtubule was used as an indicator of microtubule polymerization to assess the microtubule-stabilizing efficacy of the compounds. HEK293T cell lysates were analyzed by SDS-PAGE (7.5% gel) and immunoblotted using acetylated microtubule antibody (1:20,000, Sigma-Aldrich, T7451) and α-microtubule antibody (1:2,000, Proteintech, 11224-1-AP). After incubation with fluorescent dye-conjugated IgG (1:40,000, Licor), the blots were visualized using an Odyssey-Dlx imaging system. Grayscale analysis was performed using ImageJ.
The compound activity was quantified with the microtubule-stabilizing activity of CNDR-51657 (C5) (Jane, 2016) at 500 nM as 1.00.

[2] = Mouse Oral Pharmacokinetic Study; format: in vivo; conditions: male CD1 mice, oral gavage 10 mg/kg; for Kp at 4 h: brain/plasma, read-out: Cbrain/Cplasma; for AUC(0-t): read-out: AUC0-4h
Procedure: Healthy male CD1 mice were used as experimental animals. The drug was administered by oral gavage at a dose of 10 mg/kg with a dosing volume of 10 mL/kg. Drug preparation: 10 mg of the compound was placed in 10 mL of 50% PEG400 or 20% HPb-cyclodextrin, ground and shaken to ensure uniform distribution of the compound in small particle size, followed by oral administration. Blood samples were collected at 30 min, 1 h, 2 h, and 4 h post-dose, and brain tissues were sampled at 4 h. EDTA dipotassium salt was added to the blood samples, and plasma was obtained after centrifugation. The supernatant was analyzed after dilution with 5 volumes of acetonitrile and centrifugation. The brain tissue homogenate was diluted with 3.5 volumes of acetonitrile, centrifuged, and the supernatant was collected for analysis. The samples were then analyzed by liquid chromatography-tandem mass spectrometry (LC-MS/MS): the instrument was AB Sciex 3500; the mobile phase consisted of 0.1% formic acid in water (A)/0.1% formic acid in acetonitrile (B), with gradient elution.

[3] = mouse, brain tissue at 4 h, read-out: Cbrain@4h
[4] = mouse, plasma at 4 h, read-out: Cpasma@4h

Row | Compound | Microtubule-Stabilizing Activity 50 nM [1] | Microtubule-Stabilizing Activity 500 nM [1] | also measured
1 | CC(C)[C@@H](C)Nc1c(-c2c(F)cc(F)cc2F)c(Cl)nc2ncnn12 [Intermediate 4, (R)-5-Chloro-N-(3-methylbutan-2-yl)-6-(2,4,6-trifluorophenyl)-[1,2,4]triazolo[1,5-a]pyrimidin-7-amine, reference compound] | 0.2-0.3 | 1.00 | Kp at 4 h ([2]; mouse, 4 h): 0; concentration at 4 h [2, 3]: 0 ng/mL; concentration at 4 h [2, 4]: 3 ng/mL; AUC(0-t) ([2]; mouse, plasma, 0-4 h): 57 ng·h/mL; Cmax ([2]; mouse, plasma, read-out: Cmax): 49 ng/mL; Tmax ([2]; mouse, plasma, read-out: Tmax): 30 min
2 | C[C@H](Nc1c(-c2c(F)cc(C#CC3[C@H]4CN(C)C[C@@H]34)cc2F)c(Cl)nc2ncnn12)C(F)(F)F (stereo partly drawn) [Example 48, 5-Chloro-6-(2,6-difluoro-4-(((1R,5S,6s)-3-methyl-3-azabicyclo[3.1.0]hexan-6-yl)ethynyl)phenyl)-N—((S)-1,1,1-trifluoropropan-2-yl)-[1,2,4]triazolo[1,5-a]pyrimidin-7-amine] | 1.42 | 1.66 | Kp at 4 h ([2]; mouse, 4 h): 2.83; concentration at 4 h [2, 3]: 1020 ng/mL; concentration at 4 h [2, 4]: 359 ng/mL; AUC(0-t) ([2]; mouse, plasma, 0-4 h): 1810 ng·h/mL; Cmax ([2]; mouse, plasma, read-out: Cmax): 591 ng/mL; Tmax ([2]; mouse, plasma, read-out: Tmax): 45 min
3 | CNCCCOc1cc(F)c(-c2c(Cl)nc3ncnn3c2N[C@@H](C)C(F)(F)F)c(F)c1 [Cevipubulin, reference compound] | 1.65 | 1.68 | Cbrain/Cplasma ([2]; 4 h): 0.10; Cbrain@4h ([2]; brain tissue at 4 h): 38 ng/mL; Cmax ([2]; plasma): 660 ng/mL; Tmax ([2]; plasma): 54 min; Cpasma@4h ([2]; plasma at 4 h): 376 ng/mL; AUC0-4h ([2]; plasma, 0-4 h): 1826 ng·h/mL
4 | Cc1nc2ncnn2c(N[C@H](C)C(C)C)c1-c1c(F)cc(OCC2[C@H]3CN(C)C[C@@H]23)cc1F (stereo partly drawn) [Example 57, 6-(2,6-Difluoro-4-(((1R,5S,6r)-3-methyl-3-azabicyclo[3.1.0]hexan-6-yl)methoxy)phenyl)-5-methyl-N—((R)-3-methylbutan-2-yl)-[1,2,4]triazolo[1,5-a]pyrimidin-7-amine] |  | 1.90 | Kp at 4 h ([2]; mouse, 4 h): 0.96; concentration at 4 h [2, 3]: 102 ng/mL; concentration at 4 h [2, 4]: 106 ng/mL; AUC(0-t) ([2]; mouse, plasma, 0-4 h): 525 ng·h/mL; Cmax ([2]; mouse, plasma, read-out: Cmax): 161 ng/mL; Tmax ([2]; mouse, plasma, read-out: Tmax): 30 min
5 | 6-(4-(((1R,5S,6r)-3-Azabicyclo[3.1.0]hexan-6-yl)methoxy)-2,6-difluorophenyl)-5-methyl-N-(2,2,2-trifluoroethyl)-[1,2,4]triazolo[1,5-a]pyrimidin-7-amine [Example 35] | 0.87 | 1.80 | 
6 | CC(C)[C@@H](C)Nc1c(-c2c(F)cc(OC3CC4(CCN(C)CC4)C3)cc2F)c(Cl)nc2ncnn12 [Example 6, (R)-6-(4-((7-Methyl-7-azaspiro[3.5]nonan-2-yl)oxy)-2,6-difluorophenyl)-5-chloro-N-(3-methylbutan-2-yl)-[1,2,4]triazolo[1,5-a]pyrimidin-7-amine] | 0.25 | 0.38 | 
7 | C[C@@H](Nc1c(-c2c(F)cc(/C=C/[C@@H]3[C@H]4CNC[C@@H]34)cc2F)c(Cl)nc2ncnn12)C1CCC1.Cl [Example 52, 6-(4-((E)-2-((1R,5S,6s)-3-Azabicyclo[3.1.0]hexan-6-yl)vinyl)-2,6-difluorophenyl)-5-chloro-N—((R)-1-cyclobutylethyl)-[1,2,4]triazolo[1,5-a]pyrimidin-7-amine hydrochloride] | 1.41 | 1.69 | 
8 | Cl.Fc1cc(C#C[C@@H]2[C@H]3CNC[C@@H]23)cc(F)c1-c1c(Cl)nc2ncnn2c1NCC(F)(F)F [Example 49, 6-(4-(((1R,5S,6s)-3-Azabicyclo[3.1.0]hexan-6-yl)ethynyl)-2,6-difluorophenyl)-5-chloro-N-(2,2,2-trifluoroethyl)-[1,2,4]triazolo[1,5-a]pyrimidin-7-amine hydrochloride] | 1.04 | 1.74 | 
9 | CC(C)[C@@H](C)Nc1c(-c2c(F)cc(OC3CC4(C3)CN(C)C4)cc2F)c(Cl)nc2ncnn12 [Example 2, (R)-6-(4-((2-methyl-2-azaspiro[3.3]hept-6-yl)oxy)-2,6-difluorophenyl)-5-chloro-N-(3-methylbut-2-yl)-[1,2,4]triazolo[1,5-a]pyrimidin-7-amine] | 0.29 | 0.71 | 
10 | C[C@H](Nc1c(-c2c(F)cc(/C=C/[C@@H]3[C@H]4CNC[C@@H]34)cc2F)c(Cl)nc2ncnn12)C(F)(F)F.Cl [Example 53, 6-(4-((E)-2-((1R,5S,6s)-3-Azabicyclo[3.1.0]hexan-6-yl)vinyl)-2,6-difluorophenyl)-5-chloro-N—((S)-1,1,1-trifluoropropan-2-yl)-[1,2,4]triazolo[1,5-a]pyrimidin-7-amine hydrochloride] | 1.23 | 1.38 | 
11 | C[C@@H](Nc1c(-c2c(F)cc(OCC3[C@H]4CNC[C@@H]34)cc2F)c(Cl)nc2ncnn12)C1CCC1 (stereo partly drawn) [Example 26, 6-(4-(((1R,5S,6r)-3-Azabicyclo[3.1.0]hexan-6-yl)methoxy)-2,6-difluorophenyl)-5-chloro-N—((R)-1-cyclobutylethyl)-[1,2,4]triazolo[1,5-a]pyrimidin-7-amine] | 1.35 | 1.41 | 
12 | CC(C)[C@@H](C)Nc1c(-c2c(F)cc(OC3CC4(CCC(N(C)C)CC4)C3)cc2F)c(Cl)nc2ncnn12 (stereo partly drawn) [Example 18, (R)-5-Chloro-6-(2,6-difluoro-4-((7-(dimethylamino)spiro[3.5]nonan-2-yl)oxy)phenyl)-N-(3-methylbutan-2-yl)-[1,2,4]triazolo[1,5-a]pyrimidin-7-amine] | 0.07 | 0.68 | 
13 | CNC1CC2(C1)CC(Oc1cc(F)c(-c3c(Cl)nc4ncnn4c3NCC(F)(F)F)c(F)c1)C2 (stereo not shown) [Example 15, 5-Chloro-6-(2,6-difluoro-4-((6-(methylamino)spiro[3.3]heptan-2-yl)oxy)phenyl)-N-(2,2,2-trifluoroethyl)-[1,2,4]triazolo[1,5-a]pyrimidin-7-amine] | 0.15 | 1.60 | 
14 | CC(C)[C@@H](C)Nc1c(-c2c(F)cc(C#C[C@@H]3[C@H]4CNC[C@@H]34)cc2F)c(Cl)nc2ncnn12.Cl [Example 44, 6-(4-(((1R,5S,6s)-3-Azabicyclo[3.1.0]hexan-6-yl)ethynyl)-2,6-difluorophenyl)-5-chloro-N—((R)-3-methylbutan-2-yl)-[1,2,4]triazolo[1,5-a]pyrimidin-7-amine hydrochloride] |  | 1.6 | 
15 | C[C@H](Nc1c(-c2c(F)cc(C#C[C@@H]3[C@H]4CNC[C@@H]34)cc2F)c(Cl)nc2ncnn12)C(F)(F)F.Cl [Example 47] | 1.23 | 1.38 | 
